The text below walks through data of a melting point compilation (Tetko et al.).

What is called melting point is the temperature of the solid-liquid transition.

`CCNC(=O)CCCl`: the melting point lay in the range of 64 to 66 °C.
As to `CC(C)(C)C1CCc2[nH]c3ccc(Cl)cc3c2C1` (configuration not stated), the melting point fell in the range of 107 to 109 °C.
Regarding `O=C1NC2CCCCCCC12` (configuration not stated), the melting point lay in the range of 64 to 66 °C.
The compound `Cc1ccc(Oc2ccc(O)cc2)cc1` showed a melting point of 71 to 73 °C.
The result for `O=C(CCl)Nc1nc(-c2ccc(F)cc2)cs1` reads 142 to 144 °C; that for `Nc1cccc(COc2ccc3c(c2)OCO3)c1`, 67 to 69 °C.
The compound `Nc1cccnc1OCc1ccccc1` came in with a melting point of 51 to 53 °C.
In turn, `NC(=O)c1cc(-c2csc(N)n2)c[nH]1` displayed a melting point of 235 to 237 °C.
Consider `O=C(CCl)c1ccc(N2CCOC2=O)cc1`, for which the melting point lay in the range of 167 to 169 °C.
In turn, `CC(Oc1ccc(C(=O)O)cn1)c1ccccc1` (configuration not stated) came in with a melting point of 113 to 115 °C.
`COc1cc2c(C#N)c(OC)nc(N)c2c(N)n1` gave a melting point of 249 to 251 °C.
`CC(=O)NCc1ccc(-c2nc(N)sc2C)s1` gave a melting point of 154 to 156 °C.
Regarding `COc1ccc(-c2csc(N)n2)cc1Br`, the melting point was in the range of 188 to 190 °C.
`CCOC(=O)C(N)=NO` registered a melting point of 94 to 96 °C.
`Cc1ccsc1C(=O)c1ccc(Cl)cc1F` gave a melting point of 39 to 41 °C.
With `Clc1cn2ccccc2n1`, the melting point is 72 to 74 °C.
Regarding `O=c1nc(CCl)[nH][nH]1`, the melting point lay in the range of 179 to 181 °C.
The compound `NC(=S)c1cccc(C(=O)O)c1` yielded a melting point of 240 to 242 °C.
Take `O=C(O)COc1ccc2cc(Br)ccc2c1`: the melting point lay within 224 to 226 °C.
In turn, `NC(=S)c1cc2ccccc2o1` registered a melting point of 146 to 148 °C.
On to `Nc1ccc(Cc2nc3ccccc3s2)cc1`, for which the melting point fell in the range of 219 to 221 °C.
In the case of `CC(CC(=O)c1cccc(Br)c1)C(=O)O` (configuration not stated), the melting point lay within 95 to 97 °C.
The result for `COc1ccc(C(C)=O)cc1CS(=O)CC(=O)O` (configuration not stated) reads 93 to 95 °C; that for `COc1cc2c(cc1NC(=O)OCC(F)(F)F)oc1ccccc12`, 122 to 124 °C.
`O=C(O)C(Oc1cc(Cl)ccc1Cl)c1ccccc1` (configuration not stated) showed a melting point of 144 to 146 °C.
`NC(CC(=O)Nc1ccc(F)cc1)=NO` came in with a melting point of 142 to 144 °C.
For `COc1ccc(Cn2c(N)nc3ccccc32)cn1`, the melting point was 173 to 175 °C.
Take `ClC(c1ccccc1)c1nc(-c2ccccc2)no1` (configuration not stated): the melting point fell in the range of 74 to 76 °C.
The result for `O=C(O)c1cc(-c2ccccc2)nc2c1cnn2Cc1ccncc1` reads 279 to 281 °C; that for `CCOC(=O)c1cccnc1NC`, 46 to 48 °C; that for `CC(C)C(Br)C(=O)Nc1ccc2c(c1)CCC2` (configuration not stated), 124 to 126 °C.
For the compound `O=[N+]([O-])c1ccc(O)nc1Cl`, the melting point was 199 to 201 °C.
Compound `CCOc1ccccc1-c1cc(C(=O)O)n[nH]1` showed a melting point of 224 to 226 °C.
`NNc1ccnc(F)c1` had a melting point of 98 to 100 °C.
`NC(=NO)c1cccc(CN2CCCCC2)c1`: the melting point fell in the range of 153 to 155 °C.
As for `NS(=O)(=O)N1CCc2ccccc21`, the melting point is 149 to 151 °C.
The result for `O=C(O)c1nn(-c2cc(C(F)(F)F)ccc2Cl)c2c1CCC2` reads 229 to 231 °C; that for `CN(CC(=O)Nc1ccccc1Cl)C(=O)CCl`, 115 to 117 °C; that for `O=[N+]([O-])c1cccc(Sc2ccccc2)c1`, 38 to 40 °C.
For the compound `CCOc1ccc(C(=O)N2CCCC(C(=O)O)C2)cc1OCC` (configuration not stated), the melting point fell in the range of 189 to 191 °C.
`NCC(O)COc1cccc(C(F)(F)F)c1` (configuration not stated) showed a melting point of 66 to 68 °C.
Turning to `O=C(Nc1ccc(F)cc1)OCC(F)(F)F`, the melting point lay in the range of 76 to 80 °C.
The compound `CC(C)CNS(=O)(=O)c1ccc(C(=O)O)cc1` had a melting point of 238 to 240 °C.
`O=C(O)CNC(=O)c1ccc(Cl)c([N+](=O)[O-])c1`: the melting point was in the range of 190 to 192 °C.
As to `O=S(=O)(c1cccc(Br)c1)N1CCNCC1`, the melting point fell in the range of 97 to 101 °C.
The compound `COc1ccc(S(=O)(=O)Cl)cc1Cl` came in with a melting point of 80 to 82 °C.
Compound `O=C(O)c1ccc(-n2cccc2)c(F)c1` displayed a melting point of 252 to 254 °C.
In turn, `O=c1cccn[nH]1` had a melting point of 94 to 98 °C.
Compound `O=C1CCOc2cc(Br)ccc21` displayed a melting point of 89 to 91 °C.
`CCOC(=O)Nc1snc(C)c1C(C)=O`: the melting point is 80 to 82 °C.
Compound `CCCn1c(=O)[nH]c(=O)c2[nH]cnc21` registered a melting point of 288 to 290 °C.
For `CC(C)(C)C1CCC(c2cc(N)[nH]n2)CC1` (configuration not stated), the melting point fell in the range of 132 to 134 °C.
In turn, `CS(=O)(=O)c1cccs1` yielded a melting point of 43 to 45 °C.
Take `O=C1NC(=O)N(CCC2=CCCCC2)C1=O`: the melting point was in the range of 127 to 129 °C.
The compound `O=C1NC(=O)C(c2cccc(Br)c2)N1` (configuration not stated) had a melting point of 185 to 187 °C.
Consider `O=C(O)C1CCN(Cc2ccc(Cl)s2)CC1`, for which the melting point was in the range of 173 to 175 °C.
As for `Cc1c(Br)cc(S(=O)(=O)Cl)cc1[N+](=O)[O-]`, the melting point was 122 to 124 °C.
The compound `Cc1c(C(=O)O)oc2c(Cl)cc(Br)cc12` displayed a melting point of 272 to 274 °C.
The result for `O=C(O)CCc1n[nH]c(S)nc1=O` reads 162 to 164 °C; that for `O=c1[nH]ccc2cc[nH]c12`, 279 to 281 °C.
As to `Cc1ccc(OCc2ccc(C(=O)O)o2)cc1`, the melting point fell in the range of 204 to 206 °C.
The result for `CC(C)n1cnc(S(=O)(=O)Cl)c1` reads 62 to 64 °C; that for `CC(=O)CC(=O)c1ccc(Br)cc1`, 92 to 94 °C; that for `O=C(Nc1cc[nH]n1)c1ccccc1`, 161 to 163 °C.
As for `O=C(O)C1CCN(S(=O)(=O)c2cccc3c2N=S=N3)CC1`, the melting point fell in the range of 232 to 234 °C.
The compound `O=C(O)C1CC2CCCCC2N1C(=O)c1ccc(F)cc1F` (configuration not stated) showed a melting point of 189 to 191 °C.
For `O=C(CCl)NC1CCCCNC1=O` (configuration not stated), the melting point lay within 196 to 198 °C.
`O=[N+]([O-])c1cnc(Cl)c(Br)c1` had a melting point of 54 to 58 °C.
Compound `CS(=O)(=O)N1CCN(c2ccc(N)cn2)CC1` displayed a melting point of 178 to 180 °C.
For `COc1ccc(C(NC(=O)CCl)c2ccc(OC)cc2)cc1`, the melting point fell in the range of 118 to 120 °C.
The compound `NC(=O)c1ccc(=O)[nH]c1` showed a melting point of 316 to 318 °C.
The compound `CS(=O)(=O)c1ccc(CNC(=O)CCl)cc1` displayed a melting point of 142 to 144 °C.
In turn, `Cc1[nH]n(-c2ccc(Br)cc2)c(=N)c1C` returned a melting point of 131 to 133 °C.
As for `N#Cc1ccc(Cl)cc1NC1CCOCC1`, the melting point is 143 to 145 °C.
Turning to `CC(O)c1ccc2c(c1)CC(=O)N2` (configuration not stated), the melting point lay in the range of 171 to 173 °C.
`Nc1cc(Br)cnc1Br` returned a melting point of 137 to 139 °C.
`O=C(O)C(Cc1ccccc1)n1cnnn1` (configuration not stated): the melting point fell in the range of 162 to 164 °C.
The result for `Cc1ccc(C)n1-c1ccsc1C(=O)O` reads 185 to 187 °C.
The result for `CC(C)c1ccccc1OCCC(=O)O` reads 84 to 86 °C; that for `Cc1nc(CC(N)=NO)cs1`, 139 to 141 °C; that for `Clc1ccnc(C2=NCCO2)c1`, 73 to 75 °C.
With `COc1cc(C=O)ccc1OCc1cccs1`, the melting point fell in the range of 79 to 81 °C.
In turn, `COc1cc(C=O)ccc1[N+](=O)[O-]` returned a melting point of 89 to 91 °C.
The compound `Cc1nn(C)c(C)c1OCC(=O)O` showed a melting point of 172 to 174 °C.
In turn, `CC(=O)c1ccc(F)cc1N(C)C` registered a melting point of 57 to 59 °C.
Take `CCOC(=O)c1cnc2c(cnn2C)c1Cl`: the melting point is 83 to 85 °C.
The result for `CC(C)(C)C(N)=S` reads 114 to 116 °C; that for `O=C(CCl)Nc1cc2ccccc2cc1C(=O)O`, 223 to 225 °C.
In turn, `O=C(O)CNC(=O)Nc1ccccc1` came in with a melting point of 196 to 198 °C.
As to `O=C(O)CC1SC(=NN=Cc2ccc(Br)s2)NC1=O` (configuration not stated), the melting point lay within 278 to 280 °C.
In turn, `Cc1nnnn1-c1cccc(N)c1` returned a melting point of 121 to 123 °C.
As for `NNc1nc(-c2cccnc2)no1`, the melting point lay in the range of 169 to 171 °C.
The result for `NC(=S)Nc1cccc2c1CCCC2` reads 165 to 167 °C; that for `O=C(O)CCNC(=O)N1CCc2ccccc2C1`, 144 to 146 °C; that for `c1ccc(Nc2ccccn2)cc1`, 78 to 82 °C.
In turn, `COC1=CC(=C(N)N=O)C=CN1` had a melting point of 174 to 176 °C.
The result for `O=C(O)c1cc(N2CCCC2=O)ccc1Cl` reads 159 to 161 °C; that for `NC(=O)CCNCc1ccccc1`, 164 to 166 °C; that for `O=C(O)c1cccc(OCC(F)F)n1`, 94 to 96 °C.
Regarding `COC(=O)Cn1cnc2c(N)ncnc21`, the melting point is 228 to 230 °C.
In turn, `CC(O)c1nc2cc(Cl)ccc2n1C` (configuration not stated) returned a melting point of 136 to 138 °C.
As for `Nc1cc(C(F)(F)F)ccc1C1CCNCC1`, the melting point was in the range of 86 to 88 °C.
For `Nc1cccc(C(=O)NCc2ccccn2)c1`, the melting point was in the range of 119 to 121 °C.
In the case of `CNc1ncc2c(n1)-c1ccccc1SC2`, the melting point lay within 123 to 125 °C.
`O=C(O)C=Cc1ccccc1OCc1cccc(Br)c1` displayed a melting point of 148 to 150 °C.
The compound `CCN(CC)S(=O)(=O)c1ccc(C(=O)CBr)cc1` showed a melting point of 79 to 81 °C.
Consider `O=C(O)c1cc(F)cc(S(=O)(=O)Cl)c1Br`, for which the melting point lay within 186 to 188 °C.
Take `NC(=O)C(O)C1CCOC1` (configuration not stated): the melting point lay in the range of 84 to 86 °C.
As for `FC(F)c1nc2c(Cl)cccc2[nH]1`, the melting point lay in the range of 125 to 127 °C.
As for `Nc1ccc(Oc2ccc(S(N)(=O)=O)cc2)cc1`, the melting point fell in the range of 196 to 198 °C.
Regarding `Cc1ccc(N2C(=O)NC(CCC(=O)O)C2=O)cc1Cl` (configuration not stated), the melting point was in the range of 193 to 195 °C.
`N#Cc1ccc(OCCN)nc1`: the melting point was 101 to 103 °C.
In turn, `O=S(=O)(c1cccc(CCl)c1)N1CCOCC1` came in with a melting point of 92 to 94 °C.
In turn, `Cc1cc(Br)c(C)c(S(=O)(=O)Cl)c1` returned a melting point of 163 to 165 °C.
Compound `CC1(C)SC[C@H](C(=O)O)NC1=O` gave a melting point of 205 to 207 °C.
In the case of `O=C(c1cccnc1)c1c[nH]c2ccccc12`, the melting point was in the range of 212 to 214 °C.
`c1ccc(CCc2nnn[nH]2)cc1` displayed a melting point of 96 to 98 °C.
The result for `CC(C)CC1CC(C(=O)O)CC(=O)N1` (configuration not stated) reads 188 to 190 °C.
In the case of `O=C1CNc2ccccc2C(=O)N1`, the melting point lay within 207 to 209 °C.
`COCc1csc(N)n1` registered a melting point of 109 to 111 °C.
As for `COCCn1c(C)cc(C=O)c1C`, the melting point is 44 to 46 °C.
The result for `CC(C)(C)OC(=O)NC(CCC(=O)O)c1ccccc1` (configuration not stated) reads 151 to 153 °C.
